Data on 17 molecules can be found in patent publication US8802708B2 (priority 2004, dated 2014).

Values joined by “and” are separate entries in the source; they are usually repeats but may differ in a detail not shown here. Identical values can stand only once. Like-named read-outs stand apart in the source and are kept apart here.

One assay has as its system late blight fungus. It is filed as in vivo, tomato (variety: Ponderosa). Conditions: for synergistic effect in mixed use with Compound No. 1: within the same concentration range as the preceding table.
Assay [1] relates to downy mildew. The experiment in a line: Cucumber downy mildew treating effect test (Test Example 1, Compound No. 1 with other fungicides). The assay is classed as in vivo, cucumber (variety: Sagami Hanjiro). The procedure: A cucumber (variety: Sagami Hanjiro) was cultivated in a plastic pot of 7.5 cm in diameter, and when it reached the bifoliate stage, a spore suspension of downy mildew was spray-inoculated thereto. Each of the liquids to be tested was sprayed thereto 17 hours thereafter using a spray gun at a ratio of 5 ml per seedling. In addition, the above-described Compound No. 1 liquid was also sprayed in the same manner. After keeping in a constant temperature chamber at 22 to 24° C. for 6 days, area of the lesion on the first leaf was inspected to calculate lesion area ratio (%), with the results shown in Table 3 and Table 4. In addition, each of the theoretical values of the infection ratio calculated based on the Colby's formula is also shown by the parentheses in Table 3 and Table 4.

For assay [2], the system named is downy mildew. Description: Cucumber downy mildew treating effect test (Reference Example, Compound No. 1 with spreaders). To be noted: no mixed use of spreader. It is filed as in vivo, cucumber (variety: Sagami Hanjiro). The procedure: An effect reinforcing component was dispersed in water to a concentration of from 1,000 times to 10,000 times, and then the above-described Compound No. […] In this case, the spreaders shown in Table 1 and Table 2 were used as the effect reinforcing components. In addition, for the sake of comparison, a predetermined concentration (63 ppm or 16 ppm) of Compound No. 1 liquid containing no effect reinforcing component was prepared in the same manner as the above-described water dispersion.
A cucumber (variety: Sagami Hanjiro) was cultivated in a plastic pot of 7.5 cm in diameter, and when it reached the bifoliate stage, a spore suspension of downy mildew was spray-inoculated thereto. Each of the water dispersions to be tested was sprayed thereto 17 hours thereafter using a spray gun at a ratio of 5 ml per seedling. In addition, the above-described Compound No. 1 liquid was also sprayed in the same manner. After keeping in a constant temperature chamber at 22 to 24° C. for 6 days, area of the lesion on the first leaf was inspected to calculate lesion area ratio (%), with the results shown in Table 1 and Table 2. In addition, each of the theoretical values of the infection ratio calculated based on the Colby's formula was also shown by the parentheses in Table 1 and Table 2. In this connection, results similar to those which are shown in Table 1 and Table 2 are obtained within the same concentration range when a liquid comprising the Compound No. 1 and at least one selected from the group consisting of Dimethomorph, Chlorothalonil, a copper compound, Iprovalicarb, Zoxamide, phosphorous acid or a salt thereof, Fluazinam, Cyazofamid, Flumorph, Benthiavalicarb-isopropyl, Ethaboxam, Methalaxyl-M and Benalaxyl-M was used instead of the Compound No. 1 liquid.

Where [3] appears, read: other fungicide alone 25 g/ha, 300 liters per hectare.
The mark [4] stands for this setting: other fungicide alone 100 g/ha, 300 liters per hectare.
The mark [5] stands for this setting: other fungicide alone 250 g/ha, 300 liters per hectare.
[6] abbreviates: other fungicide alone 250 ppm (Compound No. 1 0 ppm).
Setting [7] is: other fungicide alone 200 ppm (Compound No. 1 0 ppm).

Consider `[Cl-].[Cu+2].[Cu+2].[OH-].[OH-].[OH-]` [Basic copper chloride, basic copper chloride], for which the lesion area ratio stood at 100% with late blight fungus (other fungicide alone 500 ppm, sprayed at 10 ml per seedling); 100% in the assay with late blight fungus (other fungicide alone 1,000 ppm, sprayed at 10 ml per seedling); 100% in the assay on downy mildew [1] (other fungicide alone 1,000 ppm (Compound No. 1 0 ppm)).
With `COC(=O)[C@@H](C)N(C(=O)Cc1ccccc1)c1c(C)cccc1C` [Benalaxyl-M], the lesion area ratio in the assay with late blight fungus (setting [3]) is listed as 50.0%; in the assay with late blight fungus (setting [4]) it was 25.0%; in the assay on late blight fungus (setting [5]), 6.25%.
In the case of `CC(C)OC(=O)N[C@H](C(=O)N[C@H](C)c1nc2ccc(F)cc2s1)C(C)C` [Benthiavalicarb-isopropyl], the “synergistic effect in mixed use with Compound No. 1” value in the assay on late blight fungus is “Synergistic effect can also be obtained”.
Take `N#Cc1c(Cl)c(Cl)c(Cl)c(C#N)c1Cl` [Chlorothalonil]: the lesion area ratio with late blight fungus (other fungicide alone 13 ppm, sprayed at 10 ml per seedling) amounted to 100%; in the assay on late blight fungus (other fungicide alone 25 ppm, sprayed at 10 ml per seedling) it was 17%; in the assay with late blight fungus (setting [4]), 18.8%; with late blight fungus (setting [5]) it was 25.0%; in the assay with downy mildew [1] (other fungicide alone 500 ppm (Compound No. 1 0 ppm)), 100%.
On to `Cc1c(Br)c2ccc(F)cc2n1S(=O)(=O)c1ncn(S(=O)(=O)N(C)C)n1` [Compound No. 1, 1-(N,N-dimethylsulfamoyl)-3-(3-bromo-6-fluoro-2-methylindol-1-yl)sulfonyl-1,2,4-triazole], for which the lesion area ratio was 83% in the assay with late blight fungus (Compound No. 1 1 ppm, no mixed use of other fungicide, sprayed at 10 ml per seedling); 62.5% and 37.5% with late blight fungus (Compound No. 1 alone 25 g/ha, 300 liters per hectare); 31.3% and 25.0% and 37.5% with late blight fungus (Compound No. 1 alone 250 g/ha, 300 liters per hectare); 30% with downy mildew [1] (Compound No. 1 4 ppm, no mixed use of other fungicide); 60% with downy mildew [1] (Compound No. 1 16 ppm, no mixed use of other fungicide); 40% in the assay with downy mildew [1] (Compound No. 1 63 ppm, no mixed use of other fungicide). Also, the lesion area ratio with downy mildew [2] (Compound No. 1 4 ppm) turned out to be 30%; in the assay on downy mildew [2] (Compound No. 1 16 ppm), 60%; with downy mildew [2] (Compound No. 1 63 ppm), 40%.
Regarding `[Cu+2].[OH-].[OH-]` [Cupric hydroxide, cupric hydroxide], the lesion area ratio with late blight fungus (other fungicide alone 200 g/ha, 300 liters per hectare) is given as 50.0%; in the assay on late blight fungus (other fungicide alone 800 g/ha, 300 liters per hectare) it was 43.3%; in the assay with late blight fungus (other fungicide alone 2000 g/ha, 300 liters per hectare) it was 43.8%.
Take `Cc1ccc(-c2c(Cl)nc(C#N)n2S(=O)(=O)N(C)C)cc1` [Cyazofamid]: the lesion area ratio is on record as 25.0% in the assay with late blight fungus (other fungicide alone 10 g/ha, 300 liters per hectare) and 18.8% with late blight fungus (other fungicide alone 40 g/ha, 300 liters per hectare).
As for `COc1ccc(C(=CC(=O)N2CCOCC2)c2ccc(Cl)cc2)cc1OC` [Dimethomorph], the lesion area ratio in the assay on late blight fungus (setting [3]) is reported as 87.5%; with late blight fungus (setting [4]), 75.0%; in the assay on late blight fungus (setting [5]) it was 62.5%; with downy mildew [1] (setting [6]), 100%; in the assay with downy mildew [1] (other fungicide alone 350 ppm (Compound No. 1 0 ppm)), 100%.
In the case of `CCNc1nc(CC)c(C(=O)NC(C#N)c2cccs2)s1` (centres unmarked) [Ethaboxam], the values for the lesion area ratio in the assay on late blight fungus (setting [3]), in the assay on late blight fungus (setting [4]) and with downy mildew [1] (setting [7]) were 6.25%, 6.25% and 30%, respectively.
For the molecule `O=[N+]([O-])c1cc(C(F)(F)F)c(Cl)c([N+](=O)[O-])c1Nc1ncc(C(F)(F)F)cc1Cl` [Fluazinam], the lesion area ratio with late blight fungus (setting [4]) and in the assay on late blight fungus (setting [5]) was 37.5% each time.
As for `COc1ccc(/C(=C\C(=O)N2CCOCC2)c2ccc(F)cc2)cc1OC` [Flumorph], the lesion area ratio came to 31.3% in the assay with late blight fungus (setting [4]) and 12.5% in the assay with late blight fungus (setting [5]).
Turning to `Cc1ccc(C(C)NC(=O)[C@@H](NC(=O)OC(C)C)C(C)C)cc1` (some centres unmarked) [Iprovalicarb], the lesion area ratio in the assay with late blight fungus (setting [3]) worked out at 25.0%; in the assay on late blight fungus (setting [4]) it was 6.25%; in the assay with late blight fungus (setting [5]), 6.25%; in the assay on downy mildew [1] (setting [6]), 100%.
For `COCC(=O)N(c1c(C)cccc1C)[C@H](C)C(=O)OC` [Metalaxyl-M], the “synergistic effect in mixed use with Compound No. 1” value in the assay on late blight fungus is “Synergistic effect can also be obtained”.
In the case of `O=[PH]([O-])[O-].[K+].[K+]` [Potassium phosphite, potassium phosphite (K2HPO3)], the lesion area ratio in the assay with downy mildew [1] (setting [6]) stood at 100%.
In the case of `CCCOC(=O)NCCCN(C)C` [Propamocarb], the lesion area ratio in the assay on late blight fungus (setting [4]) was 87.5%; in the assay on late blight fungus (other fungicide alone 400 g/ha, 300 liters per hectare), 75.0%; with downy mildew [1] (other fungicide alone 1,600 ppm (Compound No. 1 0 ppm)) it was 60%.
As to `O=[PH]([O-])[O-].[Na+].[Na+]` [Sodium phosphite, sodium phosphite (Na2HPO3)], the lesion area ratio with late blight fungus (other fungicide alone 500 g/ha, 300 liters per hectare) was determined as 75.0%; in the assay with late blight fungus (other fungicide alone 1000 g/ha, 300 liters per hectare), 75.0%; in the assay on late blight fungus (other fungicide alone 1500 g/ha, 300 liters per hectare) it was 50.0%.
As for `CCC(C)(NC(=O)c1cc(Cl)c(C)c(Cl)c1)C(=O)CCl` (centres unmarked) [Zoxamide], the lesion area ratio was 43.8% in the assay with late blight fungus (setting [3]), 50.0% in the assay on late blight fungus (setting [4]) and 100% in the assay on downy mildew [1] (setting [7]).
